Results on 18 compounds are retold here after US20230077155A1, “TETRAHYDROISOQUINOLINE COMPOUND AS POTASSIUM CHANNEL MODULATOR AND PREPARATION AND APPLICATION THEREOF” (Shanghai Zhimeng Biopharma, Inc., priority 2020, published 2023).

Series [1] concerns the target T1, KCNQ2 potassium channel (CHO-KCNQ2 cells) (Homo sapiens, UniProt O43526).
T1 construct: expressed in transfected cells; host or cells: CHO cells stably expressing KCNQ2, kept under G418 selection
The series is described as follows: Potassium ion channel opener activity test (FDSS/μCELL detection, FluxOR thallium flux). The series is classed as cell-based. The note with it: for Maximum agonist rate (%): highest test concentration 100 μM. The procedure: Potassium Ion Channel Opener Activity Test (FDSS/μCELL Detection)
1.1 Experimental procedure
Cell preparation: CHO-KCNQ2 cells were cultured in a 175 cm^2 culture flask, and when the cell density grew to 60-80%, the culture medium was removed, washed with 7 mL PBS (Phosphate Buffered Saline) once, then 3 mL 0.25% Trypsin was added to digest. After the digestion was completed, 7 mL culture medium (90% DMEM/F12+10% FBS±500 μg/mL G418) was added to neutralize, centrifugated for 3 minutes at 800 rpm. The supernatant was aspirated, then 5 mL culture medium was added to resuspend, and then the cells were counted.
Cell plating: according to the results of cell counting, the density was adjusted to 3×10^4 cells/well. After standing at room temperature for 30 minutes, the plate was placed in a 37° C. CO2 incubator and incubated overnight for 16-18 hours. The cell density reached about 80%.
Fluorescent dye incubation: the cell culture medium was discarded, 80 μL/well loading buffer was added, and incubated in the dark at room temperature for 60 minutes. Compound incubation: the loading buffer was discarded, 80 μL/well prepared compound solution was added, and incubated in the dark at room temperature for 20 minutes.
Fluorescence data collection: FDSS/μCELL instrument was used for real-time fluorescence signal recording with excitation wavelength at 480 nm and emission wavelength at 540 nm, recorded 1 time per second, and 20 μL/well stimulation buffer was started to add after recording for 10 seconds for baseline, and then continued to record until the end of 180 seconds.
The above buffer come from a commercially available kit named FluxOR potassium ion channel assay.
20 mM DMSO compound mother liquor was prepared, 10 μL of 20 mM compound mother liquor was took into 20 μL DMSO solution, serially diluted 3 times to 8 intermediate concentrations; then the intermediate concentrations of the compound was took out and added to the test buffer, diluted for 200 times to get the final concentration to be tested, 80 μL was took out and added to the test plate.
The highest test concentration was 100 μM, followed by […], 33.33, 11.11, 3.70, 1.23, 0.41, 0.137, 0.045 μM, total 8 concentrations. Each concentration set 3 duplicate wells.
This concentration of DMSO has no effect on the KCNQ2 potassium channel.
Experimental data was analyzed by Excel 2007 and GraphPad Prism 5.0 software, and the ratio of 180 seconds was calculated to calculate the agonism effect. The agonism effect of the compound was calculated by the following formula: […]
Reagent: FluxORTM Detection Kit (Invitrogen, Cat #F0017)
The experimental data in the report must meet the following criteria: Z′ Factor>0.5
2. Results: See Table 1, wherein the smaller the EC50 is, the higher the activity of the corresponding compound is.

Series [2] is described as follows: Pharmacokinetics of mice, single intravenous and oral administration, plasma. The series is classed as in vivo. The following applies: male ICR mice; for F: gavage 10 mg/kg vs intravenous; for AUC(0-inf) / AUC(0-t) / Cmax / Tmax / half-life: mouse, plasma. The procedure:
Study on Pharmacokinetics of Mice
1) Research purposes: In order to obtain the pharmacokinetic characteristics and blood-brain barrier of the tested compound in male ICR mice
Six healthy male ICR mice (body weight range 18-22 g) were taken and divided into 2 groups and 3 mice/group. After fasting overnight (only oral administration group), […], blood was collected by jugular vein puncture at time points 0.083 (IV only), 0.25, 0.5, 1, 2, 4, 6 (PO only), 8 and 24 hours, and at least 0.3 mL of whole blood was collected to EDTA-K2 anticoagulant tube. Plasma was centrifuged (6000 rpm, 8 minutes, 4° C.) within half an hour and frozen at −20° C. for later use.
(§1) Experimental results: According to the blood drug concentration data obtained, the non-compartmental model of WinNonlin® 7.0 software (Pharsight, USA) was used to calculate the pharmacokinetic parameters after administration.

Series [3] in a line: Brain-blood ratio study in mice after single oral administration. The following applies: mouse, brain and plasma, male ICR mice, single oral 10 mg/kg, read-out: Cerebral blood ratio; for Kp at 2 h: time point 2 h; for Kp at 4 h: time point 4 h. Type of series: in vivo. The procedure: Brain-blood ratio study: 6 healthy male ICR mice (body weight range 18-22 g) were taken and divided into 2 groups and 3 mice/group. After fasting overnight, the compound to be tested (10 mg/kg) was administrated orally respectively. Blood was taken through cardiac puncture at time points 2 and 4 hours, at least 0.5 mL of whole blood was collected to EDTA-K2 anticoagulant tube. Plasma was centrifuged (6000 rpm, 8 minutes, 4° C.) within half an hour and frozen at −20° C. for later use. At the same time, the brain tissue was collected, rinsed with normal saline, then sucked to dryness with absorbent paper, weighed, and frozen at −20° C. for later use.
The cerebral blood ratio is very important to nerve drugs, and it can be seen from Table 3 that the compounds of the present invention have excellent cerebral blood ratio, which will bring better drug efficacy and excellent safety. By comparing the cerebral blood ratios of compound A, compound 1, compound B and compound J, it can be seen that after the tert-butyl of compound A or compound B has been changed into […]

Series [4] is described as follows: Pharmacokinetics of rats, single intravenous and oral administration, plasma. Type of series: in vivo. The following applies: male SD rats; for AUC(0-inf) / AUC(0-t) / Cmax / Tmax / half-life: rat, plasma. The procedure: Study on Pharmacokinetics of Rats
1) Research purpose: To obtain the pharmacokinetic characteristics of the compounds to be tested in male SD rats.
Pharmacokinetic study: 6 healthy male SD rats (SPF grade) were divided into 2 groups and 3 rats/group. After fasting overnight (only oral administration group), compound A was administrated 0.3 mg/kg intravenously and 5 mg/kg orally, blood was collected by jugular vein puncture at time points 0.083 (IV only), 0.25, 0.5, 1, 2, 4, 6 (PO only), 8 and 24 hours, and at least 0.3 mL of whole blood was collected to EDTA-K2 anticoagulant tube. Plasma was centrifuged (6000 rmp, 8 minutes, 4° C.) within half an hour and frozen at −20° C. for later use.
as §1

The mark [5] stands for this setting: intravenous 1 mg/kg (footnote *).

Each structure is given as a SMILES string. pEC50: −log10 of the molar value.

T1 sequence (O43526 whole entry): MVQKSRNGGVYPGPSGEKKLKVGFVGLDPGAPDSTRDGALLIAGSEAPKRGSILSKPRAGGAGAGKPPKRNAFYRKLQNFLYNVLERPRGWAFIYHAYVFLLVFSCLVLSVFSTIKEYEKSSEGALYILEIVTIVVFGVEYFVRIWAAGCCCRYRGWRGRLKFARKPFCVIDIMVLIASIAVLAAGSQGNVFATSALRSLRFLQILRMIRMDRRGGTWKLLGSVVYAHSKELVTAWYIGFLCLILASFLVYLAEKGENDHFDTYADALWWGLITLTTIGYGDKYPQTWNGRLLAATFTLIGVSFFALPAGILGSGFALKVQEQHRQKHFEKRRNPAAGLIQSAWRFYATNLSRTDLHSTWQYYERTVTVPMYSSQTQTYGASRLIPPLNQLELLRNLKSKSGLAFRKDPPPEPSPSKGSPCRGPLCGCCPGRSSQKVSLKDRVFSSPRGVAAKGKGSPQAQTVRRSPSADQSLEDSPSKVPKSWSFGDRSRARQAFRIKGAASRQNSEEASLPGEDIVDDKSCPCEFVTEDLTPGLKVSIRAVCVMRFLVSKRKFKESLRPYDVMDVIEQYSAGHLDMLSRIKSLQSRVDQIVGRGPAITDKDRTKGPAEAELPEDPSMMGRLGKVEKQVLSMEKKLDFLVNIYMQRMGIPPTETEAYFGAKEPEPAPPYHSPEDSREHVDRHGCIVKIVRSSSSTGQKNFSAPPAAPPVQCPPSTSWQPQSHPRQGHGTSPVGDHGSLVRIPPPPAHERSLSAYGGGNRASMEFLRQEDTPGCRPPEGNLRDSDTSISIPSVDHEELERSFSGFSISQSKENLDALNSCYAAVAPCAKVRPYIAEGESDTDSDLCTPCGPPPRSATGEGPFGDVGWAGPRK

In the case of `Cc1cc2c(c(C)c1NC(=O)CC1(C)CC1)CCN(c1ccc(Cl)cc1)C2` [Compound W], in series [1], the pEC50 is 6.74 and the “Maximum agonist rate (%)” value amounted to 33.2%.

In the case of `Cc1cc2c(c(C)c1NC(=O)CC1CC(F)(F)C1)CCN(c1ccc(F)cc1)C2` [Compound A5], in series [1], the pEC50 was 7.31 and the “Maximum agonist rate (%)” value is 34.41%.

For the compound `Cc1cc2c(c(C)c1NC(=O)CC1(C)CC1)CCN(c1cccc(F)c1)C2` [Compound Z], in series [1], the pEC50 was 7.03 and the “Maximum agonist rate (%)” value is given as 48.65%.

With `Cc1cc2c(c(C)c1NC(=O)CC1(C)CC1)CCN(c1ccc(C(F)(F)F)cc1)C2` [Compound P], in series [1], the negative logarithm of the EC50 (pEC50) is 7.47 and the “Maximum agonist rate (%)” value stood at 38.22%. Further, the F in series [2] is given as 83.77%. Moreover, in series [2] (po, gavage 10 mg/kg), the AUC(0-inf) amounted to 30900 ng·h/mL, the exposure AUC(0-t) is 5990 ng·h/mL, the Cmax worked out at 315 ng/mL and the time to peak (Tmax) was found to be 520 min. This compound also had a half-life in series [2] (po, gavage 10 mg/kg) of 84.3 h. In series [2] (intravenous 0.5 mg/kg), the AUC(0-inf) stood at 383 ng·h/mL, the area under the curve AUC(0-t) turned out to be 357 ng·h/mL, the Cmax worked out at 382 ng/mL and the Tmax turned out to be 4.8 min. For the same compound, in series [2] (intravenous 0.5 mg/kg), the half-life is 2.67 h. Moreover, in series [3], the Kp at 2 h turned out to be 6.4 and the Kp at 4 h amounted to 5.96.

As for `C#Cc1ccc(N2CCc3c(cc(C)c(NC(=O)CC(C)(C)C)c3C)C2)cc1` [Compound D], in series [1], the negative logarithm of the EC50 (pEC50) is 6.35 and the “Maximum agonist rate (%)” value was 29.51%.

On to `Cc1cc2c(c(C)c1NC(=O)CC1(C)CC1)CCCN(c1ccc(F)cc1)C2` [Compound A2], for which, in series [1], the negative logarithm of the EC50 (pEC50) is 6.89 and the “Maximum agonist rate (%)” value is given as 44.53%.

Take `Cc1cc2c(c(C)c1NC(=O)CC1(C)CC1)CCN(c1ccc(Br)cc1)C2` [Compound Y]: in series [1], the pEC50 was 6.70 and the “Maximum agonist rate (%)” value was 37.96%.

With `Cc1cc2c(c(C)c1NC(=O)CCC1CC1)CCN(c1ccc(F)cc1)C2` [Compound A7], in series [1], the pEC50 was 6.40 and the “Maximum agonist rate (%)” value came out at 35.92%.

As for `Cc1cc2c(c(C)c1NC(=O)CC1(C)CC1)CCN(c1ccc(F)cc1F)C2` [Compound J], the F in series [2] amounted to 19.18%. Also, in series [2] (po, gavage 10 mg/kg), the total exposure AUC(0-inf) was determined as 703 ng·h/mL, the AUC(0-t) was determined as 693 ng·h/mL, the concentration peaked (Cmax) at 374 ng/mL and the time of peak concentration (Tmax) came out at 15 min. In series [2] (po, gavage 10 mg/kg), this compound had a half-life of 1.81 h. Moreover, in series [2] (setting [5]), the AUC(0-inf) turned out to be 366 ng·h/mL, the AUC(0-t) was 361 ng·h/mL, the highest level (Cmax) was 942 ng/mL and the Tmax is 4.8 min. Besides, in series [2] (setting [5]), the half-life was 0.88 h. Also, in series [3], the Kp at 2 h came out at 4.1 and the Kp at 4 h came to 3.2.

Consider `Cc1cc2c(c(C)c1NC(=O)CC1(C)CC1)CCN(c1ccc(C#N)cc1)C2` [Compound O], for which, in series [1], the pEC50 was 6.11 and the “Maximum agonist rate (%)” value was 29.43%.

`Cc1cc2c(c(C)c1NC(=O)CC(C)(C)C)CCN(c1ccc(F)cc1)C2` [Compound A] showed a F in series [4] (gavage 5 mg/kg vs intravenous 0.3 mg/kg) of 38.93%. In series [4] (po, gavage 5 mg/kg), the AUC(0-inf) is 1280 ng·h/mL, the exposure AUC(0-t) turned out to be 909 ng·h/mL, the concentration peaked (Cmax) at 154 ng/mL and the time of peak concentration (Tmax) came to 90 min. The compound further had a half-life in series [4] (po, gavage 5 mg/kg) of 184 min. Moreover, in series [4] (intravenous 0.3 mg/kg), the total exposure AUC(0-inf) amounted to 144 ng·h/mL, the AUC(0-t) amounted to 140 ng·h/mL, the Cmax was 332 ng/mL and the Tmax is 4.8 min. Also, the half-life in series [4] (intravenous 0.3 mg/kg) was 59.4 min. In addition, in series [1], the pEC50 is 6.36 and the “Maximum agonist rate (%)” value was determined as 37.97%. In series [2], this compound came in with an F of 33.79%. Also, in series [2] (po, gavage 10 mg/kg), the AUC(0-inf) worked out at 793 ng·h/mL, the area under the curve AUC(0-t) was 792 ng·h/mL, the highest level (Cmax) was 142 ng/mL and the time to peak (Tmax) is 40.2 min. For the same compound, in series [2] (po, gavage 10 mg/kg), the half-life was 2.61 h. Besides, in series [2] (intravenous 0.5 mg/kg), the area under the curve AUC(0-inf) was determined as 118 ng·h/mL, the area under the curve AUC(0-t) was found to be 117 ng·h/mL, the peak level (Cmax) was 270 ng/mL and the time of peak concentration (Tmax) worked out at 4.8 min. Also, the half-life in series [2] (intravenous 0.5 mg/kg) was 0.99 h. In series [3], the Kp at 2 h is 2.3 and the Kp at 4 h was found to be 2.8.

For the compound `Cc1cc2c(c(C)c1NC(=O)CC1(C)CC1)CCN(c1ccccc1)C2` [Compound V], in series [1], the negative-log EC50 (pEC50) is 6.47 and the “Maximum agonist rate (%)” value came out at 45.76%.

As to `Cc1ccc(N2CCc3c(cc(C)c(NC(=O)CC(C)(C)C)c3C)C2)cc1` [Compound U], in series [1], the negative-log EC50 (pEC50) was 6.48 and the “Maximum agonist rate (%)” value turned out to be 52.3%.

Take `Cc1cc2c(c(C)c1NC(=O)CC1(C(F)(F)F)CC1)CCN(c1ccc(F)cc1)C2` [Compound A6]: in series [1], the pEC50 is 6.54 and the “Maximum agonist rate (%)” value is given as 17.08%.

As for `Cc1cc2c(c(C)c1NC(=O)CC1(C)CC1)CCN(c1ccc(I)cc1)C2` [Compound X], in series [1], the pEC50 is 7.14 and the “Maximum agonist rate (%)” value was found to be 28.94%.

As to `[2H]C1([2H])c2cc(C)c(NC(=O)CC3(C)CC3)c(C)c2CCN1c1ccc(C(F)(F)F)cc1` [Compound A3], in series [1], the negative logarithm of the EC50 (pEC50) was 6.68 and the “Maximum agonist rate (%)” value worked out at 36.16%.

With `Cc1cc2c(c(C)c1NC(=O)CC1(C)CC1)CCN(c1ccccc1F)C2` [Compound A1], in series [1], the pEC50 is 6.14 and the “Maximum agonist rate (%)” value turned out to be 35.84%.

As to `Cc1cc2c(c(C)c1NC(=O)CC1(C)CC1)CCN(c1cccc(C(F)(F)F)c1)C2` [Compound A4], in series [1], the pEC50 was 6.57 and the “Maximum agonist rate (%)” value stood at 48.11%.
